Source: the supplement of paper PMC10307832

Key:
Experiment in all cases: relative viability (nuclei count vs DMSO), 5 days (fraction); higher = more cells survive
[1] = compound: C1=CC=C(C(=C1)C2=CC=C(C=C2)C3=CSC4=C3C(=C(C(=O)N4)C#N)O)O + CC(=O)Nc1cccc(-n2c(=O)n(C3CC3)c(=O)c3c(Nc4ccc(I)cc4F)n(C)c(=O)c(C)c32)c1 [Trametinib] (partner 0.02 µM)
In short: (§1)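 Medians of duplicate plates are given as relative viability. That measure is the nuclei count in treated wells divided by the count in vehicle wells. Counts were taken on 4× images of lung cancer cell lines in 1536-well plates, 5 days after pin-tool dosing the day after seeding with one drug alone or a fixed anchor-drug dose plus five library-drug doses (not always all listed) in √10 steps.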

[2] = compound: C1=CC=C(C(=C1)C2=CC=C(C=C2)C3=CSC4=C3C(=C(C(=O)N4)C#N)O)O + Nc1nc2[nH]cc(CCc3ccc(C(=O)N[C@@H](CCC(=O)O)C(=O)O)cc3)c2c(=O)[nH]1 [Pemetrexed] (partner 0.2 µM)
In short: as §1

Ricolinostat + Alpelisib = compound: O=C(CCCCCCNC(=O)c1cnc(N(c2ccccc2)c2ccccc2)nc1)NO [Ricolinostat] + Cc1nc(NC(=O)N2CCC[C@H]2C(N)=O)sc1-c1ccnc(C(C)(C)C(F)(F)F)c1 [Alpelisib] (partner 2 µM)
In short: as §1

[3] = compound: O=C(CCCCCCNC(=O)c1cnc(N(c2ccccc2)c2ccccc2)nc1)NO [Ricolinostat] + Nc1ncn([C@H]2C[C@H](O)[C@@H](CO)O2)c(=O)n1 [Decitabine] (partner 2 µM)
In short: as §1

| Cell Line | relative viability ([1]; first compound 0.08 µM) | relative viability ([1]; first compound 0.253 µM) | relative viability ([1]; first compound 0.8 µM) | relative viability ([1]; first compound 2.53 µM) | relative viability ([1]; first compound 8 µM) | relative viability ([2]; first compound 0.08 µM) | relative viability ([2]; first compound 0.253 µM) | relative viability ([2]; first compound 0.8 µM) | relative viability ([2]; first compound 2.53 µM) | relative viability ([2]; first compound 8 µM) | relative viability (Ricolinostat + Alpelisib; first compound 0.08 µM) | relative viability (Ricolinostat + Alpelisib; first compound 0.253 µM) | relative viability (Ricolinostat + Alpelisib; first compound 0.8 µM) | relative viability (Ricolinostat + Alpelisib; first compound 2.53 µM) | relative viability ([3]; first compound 0.08 µM) | relative viability ([3]; first compound 0.253 µM) | relative viability ([3]; first compound 0.8 µM) | relative viability ([3]; first compound 2.53 µM) |
| --- | --- | --- | --- | --- | --- | --- | --- | --- | --- | --- | --- | --- | --- | --- | --- | --- | --- | --- |
| COR-L23 | 0.669 | 0.716 | 0.76 | 0.552 | 0.521 | 0.222 | 0.228 | 0.212 | 0.189 | 0.19 | 0.651 | 0.689 | 0.571 | 0.407 | 0.402 | 0.493 | 0.358 | 0.332 |
| BEN | 1.13 | 1.08 | 1.01 | 0.967 | 1.02 | 0.694 | 0.786 | 0.761 | 0.857 | 0.761 | 0.951 | 0.901 | 0.978 | 0.655 | 0.578 | 0.78 | 0.567 | 0.581 |
| LC-2-ad | 0.899 | 0.942 | 0.909 | 0.98 | 0.807 | 0.268 | 0.288 | 0.279 | 0.306 | 0.257 | 0.786 | 0.853 | 0.839 | 0.663 | 0.776 | 0.784 | 0.842 | 0.835 |
| NCI-H650 | 1.11 | 1.01 | 0.991 | 1.02 | 0.987 | 0.944 | 1.05 | 0.972 | 0.979 | 0.862 | – | 1.18 | 0.922 | 0.877 | 0.312 | 0.301 | 0.315 | 0.306 |
| NCI-H1563 | – | – | – | – | – | 0.64 | 0.688 | 0.774 | 0.746 | 0.783 | 0.916 | 0.994 | 0.862 | 0.857 | – | – | – | – |
| NCI-H1793 | 0.354 | 0.738 | 0.428 | 0.446 | 0.34 | 0.69 | 0.862 | 0.713 | 0.687 | 0.802 | – | 0.633 | 0.698 | 0.755 | 0.423 | 0.514 | 0.56 | 0.499 |
| HCC-78 | 0.916 | 1.27 | 0.972 | 0.728 | 0.628 | 0.79 | 0.946 | 0.903 | 0.959 | 0.883 | – | 0.32 | 0.291 | 0.192 | – | 0.7 | 0.602 | 0.585 |
| LCLC-97TM1 | 0.23 | 0.239 | 0.247 | 0.168 | 0.232 | 0.177 | 0.179 | 0.16 | 0.182 | 0.166 | 0.177 | 0.288 | 0.188 | 0.306 | 0.225 | 0.185 | 0.214 | 0.227 |
